inhibition, solubility and Activity data for 28 compounds are collected here from ChEMBL document CHEMBL5038596, “Design, Synthesis, In Vitro and In Vivo Characterization of Selective NKCC1 Inhibitors for the Treatment of Core Symptoms in Down Syndrome” (J Med Chem, 2021).

Active and inactive are the calls of the source. The calls are words filed in the database; no cut-off is given here.

Data set [1] has as its target T1, Solute carrier family 12 member 2 (Homo sapiens) (UniProt P55011).
T1 sequence (whole entry): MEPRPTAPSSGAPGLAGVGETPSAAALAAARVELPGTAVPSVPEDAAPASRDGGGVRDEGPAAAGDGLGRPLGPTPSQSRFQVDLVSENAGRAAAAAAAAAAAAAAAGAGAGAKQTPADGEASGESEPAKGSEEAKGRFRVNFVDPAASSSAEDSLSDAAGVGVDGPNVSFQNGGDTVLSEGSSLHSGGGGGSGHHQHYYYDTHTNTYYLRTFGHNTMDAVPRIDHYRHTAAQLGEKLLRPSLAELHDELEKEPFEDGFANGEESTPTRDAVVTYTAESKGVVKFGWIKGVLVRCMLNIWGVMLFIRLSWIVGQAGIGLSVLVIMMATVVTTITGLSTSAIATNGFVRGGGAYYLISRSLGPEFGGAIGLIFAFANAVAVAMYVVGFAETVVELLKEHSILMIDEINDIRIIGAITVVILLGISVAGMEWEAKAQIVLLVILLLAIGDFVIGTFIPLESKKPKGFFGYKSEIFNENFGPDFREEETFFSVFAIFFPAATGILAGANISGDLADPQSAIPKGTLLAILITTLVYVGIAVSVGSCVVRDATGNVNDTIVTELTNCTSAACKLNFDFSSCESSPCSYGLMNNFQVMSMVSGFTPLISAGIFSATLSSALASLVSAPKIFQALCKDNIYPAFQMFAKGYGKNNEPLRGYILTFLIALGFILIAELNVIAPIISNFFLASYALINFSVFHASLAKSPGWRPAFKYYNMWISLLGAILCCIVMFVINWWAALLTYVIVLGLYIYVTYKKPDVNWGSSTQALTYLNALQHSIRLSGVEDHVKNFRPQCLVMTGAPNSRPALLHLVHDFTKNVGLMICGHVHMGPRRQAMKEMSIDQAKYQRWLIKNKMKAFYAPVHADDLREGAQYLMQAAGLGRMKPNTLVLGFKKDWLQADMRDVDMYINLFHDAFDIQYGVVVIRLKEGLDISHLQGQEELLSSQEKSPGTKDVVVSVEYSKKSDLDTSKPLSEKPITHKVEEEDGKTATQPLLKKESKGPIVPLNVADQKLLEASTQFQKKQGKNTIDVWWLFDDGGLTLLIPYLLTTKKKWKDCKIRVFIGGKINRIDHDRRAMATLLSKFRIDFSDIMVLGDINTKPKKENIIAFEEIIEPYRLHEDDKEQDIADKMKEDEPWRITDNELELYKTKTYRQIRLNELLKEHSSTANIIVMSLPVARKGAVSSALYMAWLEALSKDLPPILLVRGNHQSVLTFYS
Description: Inhibition of NKCC1 (unknown origin) transfected in HEK293 cells expressing mbYFPQS plasmid assessed as reduction in Cl- influx at 10 uM incubated for 30 mins by fluorescence multiplate reader analysis. The class given is cell-based.

Data set [2] has as its target T1, Solute carrier family 12 member 2 (Homo sapiens). Description: Inhibition of NKCC1 (unknown origin) transfected in HEK293 cells expressing mbYFPQS plasmid assessed as reduction in Cl- influx at 100 uM incubated for 30 mins by fluorescence multiplate reader analysis. It is filed as cell-based.
Another data set deals with Primary neuron. Description: Inhibition of NKCC1 in mouse primary hippocampal neurons assessed as reduction of Ca2+ uptake at 100 uM incubated for 15 mins by Fluo-4AM dye based fluorescence analysis. It is filed as cell-based.
The nature of data set [3]: Solubility of compound in assay buffer at pH 7.4 assessed as precipitation at 100 uM measured after 15 mins. It is filed as physicochemical. The following applies: pH 7.4, 0.25 h.
Data set [4] deals with Mus musculus. The experiment in a line: Diuretic activity in wild type mouse assessed as increase in urine volume at 0.6 mg/kg, ip measured after 2 hrs. It is filed as functional, organism-based.
For data set [5], the target named is T2, Solute carrier family 12 member 5 (Homo sapiens) (UniProt Q9H2X9).
T2 sequence (whole entry): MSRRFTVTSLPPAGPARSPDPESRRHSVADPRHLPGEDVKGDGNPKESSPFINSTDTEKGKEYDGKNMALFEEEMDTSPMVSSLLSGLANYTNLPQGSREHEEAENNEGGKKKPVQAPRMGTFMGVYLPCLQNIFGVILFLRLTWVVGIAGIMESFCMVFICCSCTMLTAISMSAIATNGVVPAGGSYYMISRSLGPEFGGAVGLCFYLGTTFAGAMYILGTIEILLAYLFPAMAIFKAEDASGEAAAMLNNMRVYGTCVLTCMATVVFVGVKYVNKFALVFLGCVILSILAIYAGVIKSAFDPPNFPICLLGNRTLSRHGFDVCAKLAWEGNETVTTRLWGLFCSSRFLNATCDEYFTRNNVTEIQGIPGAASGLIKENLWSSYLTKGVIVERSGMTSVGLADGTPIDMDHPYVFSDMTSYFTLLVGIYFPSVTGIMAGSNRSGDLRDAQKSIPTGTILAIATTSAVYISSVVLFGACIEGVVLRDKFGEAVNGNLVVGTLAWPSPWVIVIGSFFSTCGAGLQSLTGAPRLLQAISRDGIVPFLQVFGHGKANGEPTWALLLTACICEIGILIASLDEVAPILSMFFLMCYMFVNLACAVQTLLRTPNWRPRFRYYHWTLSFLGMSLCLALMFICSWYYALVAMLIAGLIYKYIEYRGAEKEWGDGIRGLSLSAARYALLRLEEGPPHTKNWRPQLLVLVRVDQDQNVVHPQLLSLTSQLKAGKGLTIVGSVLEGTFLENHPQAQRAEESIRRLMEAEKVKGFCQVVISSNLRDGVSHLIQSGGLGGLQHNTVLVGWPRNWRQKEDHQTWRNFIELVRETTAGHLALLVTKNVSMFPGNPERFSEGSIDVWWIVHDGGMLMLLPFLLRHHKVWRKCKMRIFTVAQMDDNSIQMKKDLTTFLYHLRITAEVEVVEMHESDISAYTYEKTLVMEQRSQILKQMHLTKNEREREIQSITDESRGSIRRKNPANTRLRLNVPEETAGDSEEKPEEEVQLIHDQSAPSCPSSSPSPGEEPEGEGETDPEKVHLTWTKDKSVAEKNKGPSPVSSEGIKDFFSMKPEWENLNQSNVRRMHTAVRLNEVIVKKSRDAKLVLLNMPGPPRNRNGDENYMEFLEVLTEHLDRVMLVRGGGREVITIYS
Description: Inhibition of KCC2 (unknown origin) transfected in HEK293 cells assessed a reduction in TI influx at 10 uM incubated for 1 hr by fluorescence based analysis relative to control. It is filed as cell-based.

Data set [6] relates to Mus musculus. Description: Cognitive enhancement effect in Ts65Dn mouse assessed as rescue of poor novel-discrimination ability by measuring increase in time spent in exploring novel object at 0.6 mg/kg, ip measured after 1 to 4 weeks by novel object recognition test. The following applies: time 1-4 weeks. It is filed as functional, organism-based.
Data set [7] has as its system Mus musculus. Description: Rescue of hyperactivity in Ts65Dn mouse assessed as assessed as reduction in total distance travelled at 0.6 mg/kg, ip measured after 1 to 4 weeks by open field test. The following applies: time 1-4 weeks. It is filed as functional, organism-based.
Data set [8] relates to Mus musculus. The experiment in a line: Cognitive enhancement effect in Ts65Dn mouse assessed as rescue of electric shock induced freezing response at 0.6 mg/kg, ip measured after 1 to 4 weeks by contextual fear-conditioning test. The class given is functional, organism-based. The following applies: time 1-4 weeks.
Data set [9] in a line: Toxicity in mouse assessed as reduction in body weight at 0.6 mg/kg, ip administered daily for 3 weeks. It is filed as organism-based. The following applies: in vivo, 504 h.
In data set [10] the test system is Mus musculus. Description: Cognitive enhancement effect in Ts65Dn mouse assessed as restoration of short-term working memory by measuring number of correct choices at 0.6 mg/kg, ip measured after 1 to 4 weeks by T-maze test. It is filed as functional, organism-based. The following applies: time 1-4 weeks.
Data set [11] is described as follows: Toxicity in Ts65Dn mouse assessed as reduction in body weight at 0.6 mg/kg, ip administered daily for 3 weeks. It is filed as organism-based. The following applies: in vivo, 504 h.
The test system of data set [12] is Mus musculus. Description: Diuretic activity in Ts65Dn mouse assessed as increase in urine volume at 0.6 mg/kg, ip measured after 2 hrs. The class given is functional, organism-based.
A short description of data set [13]: Solubility of compound in Cl- free hypotonic solution at pH 7.4 assessed as precipitation at 100 uM measured after 30 mins. It is filed as physicochemical. The conditions noted are these: buffer, pH 7.4, 0.5 h.

With `CCCCCCCCNc1ccc(C(=O)O)cc1S(=O)(=O)N(C)C`, the inhibition entry in data set [1] is “inactive”.
As to `COCCCCCCNc1ccc(C(=O)O)cc1S(=O)(=O)N(C)C`, the inhibition entry in data set [1] and in [2] was “inactive” in each case.
For `COCCCCNc1ccc(C(=O)O)cc1S(=O)(=O)N(C)C`, the inhibition entry in [1] was “inactive”.
Consider `O=C(O)c1ccc(NCCCCCCCC(F)(F)F)c(S(=O)(=O)NC2CCCC2)c1`, for which the inhibition result in the data set with Primary neuron was “inactive”. The solubility result in data set [3] is “Insoluble”.
`CCCCNc1ccc(C(=O)O)cc1S(N)(=O)=O`: the inhibition entry in data set [1] is “inactive”.
As for `CC(C)(C)CCNc1ccc([N+](=O)[O-])cc1S(N)(=O)=O`, the inhibition entry in data set [1] was “inactive”.
For the compound `CCCCCCNc1ccc(C(=O)O)cc1S(N)(=O)=O`, in [1], the inhibition result was “inactive”.
As for `CCCCCCNc1ccc(C(=O)O)cc1S(=O)(=O)NC`, the inhibition result in data set [1] and in data set [2] was “inactive” in each case.
For the compound `CCCCCCNc1ccc([N+](=O)[O-])cc1S(=O)(=O)N(C)C`, in [1], the inhibition result is “inactive”.
In the case of `CN(C)S(=O)(=O)c1cc(C(=O)O)ccc1NCCCC(F)(F)F`, the inhibition result in data set [1] is “inactive”.
Regarding `CN(C)S(=O)(=O)c1cc(C(=O)O)c(O)cc1NCCCCCCCC(F)(F)F`, the outcome in the data set on Mus musculus [4] and in the data set on Mus musculus [12] was inactive. The inhibition entry in data set [1] and in [5] was “inactive” each time. For the same compound, the outcome in the data set with Mus musculus [6], in the data set on Mus musculus [7], in the data set on Mus musculus [8] and in the data set with Mus musculus [10] was Active. Moreover, the Activity result in data set [9] and in [11] was “Non-Toxic” in each case.
Take `CN(C)S(=O)(=O)c1cc([N+](=O)[O-])ccc1NCCC(C)(C)C`: in data set [13], the solubility entry is given as “Insoluble”.
As for `CCCCNc1ccc([N+](=O)[O-])cc1S(=O)(=O)N(C)C`, the inhibition result in [1] was “inactive”. In addition, the solubility entry in [13] is on record as “Insoluble”.
On to `CCCCNc1cc(C(=O)O)cc(S(N)(=O)=O)c1Oc1ccccc1`, for which the outcome with Mus musculus [4] and in the data set on Mus musculus [12] was Active.
For `CCCCCCNc1ccc([N+](=O)[O-])cc1S(N)(=O)=O`, in [1], the inhibition entry is “inactive”.
Still for that read-out and setting: the entry for `CNS(=O)(=O)c1cc(C(=O)O)ccc1NCCC(C)(C)C` is “inactive”; for `CCCCNc1ccc([N+](=O)[O-])cc1S(N)(=O)=O` it is “inactive”.
Still for that read-out and setting: the value for `CC(C)(C)CCNc1ccc(C(=O)O)cc1S(N)(=O)=O` was “inactive”.
With `CCCCCCCCNc1ccc(C(=O)O)cc1S(N)(=O)=O`, the inhibition entry in data set [1] was “inactive”.
As to `CN(C)S(=O)(=O)c1cc(C(=O)O)c(OC2CCCC2)cc1NCCCCCCCC(F)(F)F`, the inhibition entry in the data set with Primary neuron was “inactive”. Also, the solubility entry in data set [3] is given as “Insoluble”.
Take `CCCCCCCCNc1ccc([N+](=O)[O-])cc1S(=O)(=O)N(C)C`: the inhibition entry in data set [1] and in data set [2] was “inactive” each time.
As for `CCCCCCNc1ccc(C(=O)O)cc1S(=O)(=O)N(C)C`, the inhibition entry in data set [1] is “inactive”.
As to `CN(C)S(=O)(=O)c1cc(C(=O)O)ccc1NCCC(C)(C)C`, the inhibition result in [1] and in data set [2] was “inactive” in each case.
On to `CN(C)S(=O)(=O)c1cc(C(=O)O)ccc1NCCCCCC(F)(F)F`, for which the inhibition entry in [1] is “inactive”.
As for `CCCCCCCCNc1ccc([N+](=O)[O-])cc1S(=O)(=O)NC`, the inhibition entry in data set [1] and in data set [2] was “inactive” throughout.
Regarding `O=C(O)c1ccc(NCCCCCCCC(F)(F)F)c(S(=O)(=O)N2CCCCC2)c1`, the inhibition entry with Primary neuron was “inactive”. The solubility entry in data set [3] is given as “Insoluble”.
In the case of `CCCCNc1ccc([N+](=O)[O-])cc1S(=O)(=O)NC`, the inhibition entry in [1] was “inactive”.
With `O=C(O)c1ccc(NCCCCCCCC(F)(F)F)c(S(=O)(=O)NC2CCCCC2)c1`, the inhibition result in the data set on Primary neuron was “inactive”. Also, the solubility result in data set [3] was “Insoluble”.
